Counter-ions that a name gives are not always drawn. Like-named read-outs stand apart in the source and are kept apart here. Values belong to the compound of their own block, whether it stands above or below them.
Key:
[1] = rat, in vivo, iv, 20 mg/kg
Method: (§2) The tests were performed by methods well-recognized in the art.
(§3) Specifically, the male Sprague-Dawley rats were administered a 20 mg/kg dose intravenously. The plasma levels of the administered compound were monitored by bioassay with an E. coli strain.

[2] = tested on: Shigella sonnei N9; assay: MIC by standard agar dilution test; format: cell-based
Source text: (§1) The antibiotic activity of selected compounds of Formula I and, for comparison, a compound of related structure, is illustrated by the following in vitro test data. In Table I, the minimum inhibitory concentrations (MIC) for the compounds against a wide range of gram-positive and gram-negative bacteria are presented. The MIC values were obtained by the standard agar dilution test method. The excellent in vitro activity of the claimed compounds is especially surprising in light of their high solution stability. High solution stability of a β-lactam compound was until now thought to indicate low acylating ability of the β-lactam, and thus low antibacterial activity for the compound.

[3] = tested on: Salmonella typhi X514; assay: MIC by standard agar dilution test; format: cell-based
Source text: as §1

[4] = tested on: Salmonella typhi 1335; assay: MIC by standard agar dilution test; format: cell-based
Source text: as §1

[5] = tested on: Staphylococcus aureus S13E; assay: MIC by standard agar dilution test; format: cell-based; conditions: β-lactamase producer, penicillin G resistant
Source text: as §1

[6] = Intravenous pharmacokinetics in the rat, plasma levels monitored by bioassay with an E. coli strain
Method: as §2, §3

[7] = tested on: Staphylococcus aureus V41; assay: MIC by standard agar dilution test; format: cell-based; conditions: Staphylococcus aureus V41, penicillin G resistant
Source text: as §1

[8] = tested on: Hemophilus influenzae C.L.; assay: MIC by standard agar dilution test; format: cell-based
Source text: as §1

[9] = tested on: Streptococcus pneumoniae Park I; assay: MIC by standard agar dilution test; format: cell-based
Source text: as §1

[10] = tested on: Staphylococcus epidermidis EPI1; assay: MIC by standard agar dilution test; format: cell-based; conditions: Staphylococcus epidermidis EPI1, methicillin resistant
Source text: as §1

[11] = tested on: Escherichia coli TEM; assay: MIC by standard agar dilution test; format: cell-based; conditions: β-lactamase producer
Source text: as §1

[12] = tested on: Staphylococcus epidermidis EPI2; assay: MIC by standard agar dilution test; format: cell-based; conditions: Staphylococcus epidermidis EPI2, methicillin resistant
Source text: as §1

Structure (SMILES): CCS(=O)(=O)Nc1cccc([C@@H](N)C(=O)N[C@@H]2C(=O)N3C(C(=O)O)=C(Cl)CC[C@H]23)c1 [Example 4, 7β-[2ʹ-(R)-2ʹ-(m-(Ethylsulfonamido)phenyl)-2ʹ-Aminoace amido)-3-Chloro-3-(1-Carba-1-Dethiacephem)-4-Carboxylic Acid, Zwitterionic Salt]
AUC (area under the curve) [1]: 12 | Half-Life [1]: 0.683 h | Minimum Inhibitory Concentration [2]: 2 µg/mL | Minimum Inhibitory Concentration [3]: 2 µg/mL | Minimum Inhibitory Concentration [4]: 2 µg/mL | Minimum Inhibitory Concentration [5]: 2 µg/mL

AUC (area under the curve) [1]: 20 | Half-Life [1]: 0.65 h
Structure (SMILES): CCCS(=O)(=O)Nc1cccc([C@@H](N)C(=O)N[C@@H]2C(=O)N3C(C(=O)O)=C(Cl)CC[C@H]23)c1 [Example 5, 7β-[2ʹ-(R)-2ʹ-(m-(n-Propylsulfonamido)phenyl)-2ʹ-Aminocetamido]-3-Chloro-3-(1-Carba-1-Dethiacephem)-4-Carboxy lic Acid, Zwitterionic Salt.]

Structure (SMILES): CS(=O)(=O)Nc1cccc([C@@H](N)C(=O)N[C@@H]2C(=O)N3C(C(=O)O)=C(Cl)CC[C@H]23)c1 [Example 2, 7β-[2ʹ-(R)-2ʹ-(m-(Methylsulfonamido)phenyl)-2ʹ-Aminoactamido]-3-Chloro-3-(1-Carba-1-Dethiacephem)-4-Carboxyli c Acid, Zwitterionic Salt]
Half-Life ([6]; rat, plasma, iv, 20 mg/kg): 5.28 h

Structure (SMILES): CS(=O)(=O)Nc1cccc([C@@H](N)C(=O)N[C@@H]2C(=O)N3C(C(=O)O)=C(Cl)CC[C@H]23)c1.O=C(O)C(F)(F)F [Example 1, 7β-[2ʹ-(R)-2ʹ-(m-(Methylsulfonamido)phenyl)-2ʹ-Aminoactamido]-3-Chloro-3-(1-Carba-1-Dethiacephem)-4-Carboxyli c Acid Trifluoroacetate Salt]
Half-Life ([6]; rat plasma, 20 mg/kg intravenously, bioassay, model-independent analysis): 5.57 h | Minimum Inhibitory Concentration [2]: 0.5 µg/mL | Minimum Inhibitory Concentration [7]: 4 µg/mL | Minimum Inhibitory Concentration [8]: 2 µg/mL | Minimum Inhibitory Concentration [3]: 0.5 µg/mL | Minimum Inhibitory Concentration [9]: 1 µg/mL | Minimum Inhibitory Concentration [10]: 4 µg/mL | Minimum Inhibitory Concentration [4]: 0.5 µg/mL | Minimum Inhibitory Concentration [11]: 0.25 µg/mL | Minimum Inhibitory Concentration [12]: 2 µg/mL | Minimum Inhibitory Concentration [5]: 2 µg/mL

Structure (SMILES): CCS(=O)(=O)Nc1cccc(C(N)C(=O)N[C@@H]2C(=O)N3C(C(=O)O)=C(Cl)CC[C@H]23)c1.O=C(O)C(F)(F)F (stereo partly drawn) [Example 3, 7β-[2ʹ-(R,S)-2ʹ-(m-(Ethylsulfonamido)phenyl)-2ʹ-Aminoaetamido]-3-Chloro-3-(1-Carba-1-Dethiacephem)-4-Carboxyl ic Acid Trifluoroacetate Salt]
AUC (area under the curve) [1]: 18 | Half-Life [1]: 0.55 h
